Test results: patent US20240252463A1, “METHODS OF TREATING FIBROTIC PATHOLOGIES” (Mayo Foundation for Medical Education and Research, priority 2018, published 2024)

Tests used:
YAP/TAZ target genes = test: YAP/TAZ target gene expression in flow-sorted lung cells of bleomycin-injured mice; type: in vivo, mouse; conditions: bleomycin day 10, two doses of DHX (2 and 24 hours prior to collecting lungs)
Experimental: 29A. Two groups of mice were injured intratracheally with bleomycin at day 0, on day 10 one group received two doses of DHX (2 and 24 hours prior to collecting lungs) and the other received vehicle control. On day 11 lungs were collected to flow sort fibroblasts, epithelial, and endothelial cells. 29B. Changes in RNA expression of YAP/TAZ target genes from freshly isolated cells.
Cell Sorting: FACS: PBS perfused mouse lungs were finely minced with a razor blade in a 100 mm petri dish in 1 mL of cold DMEM medium containing 0.2 mg ml^−1 Liberase DL (Roche) and 100 U ml^−1 DNase I (Roche). The mixture was transferred to 15 ml tubes and incubated at 37° C. for 30 min in a water bath. Enzymatic digestion was inactivated by adding DMEM medium containing 10% fetal bovine serum. The cell suspension was passed once through a 40 µm cell strainer (Fisher) to remove multicellular debris. Cells were then centrifuged at 1,300 r.p.m. at 4° C. for 10 min, washed once in PBS and resuspended in 0.2 ml of FACS buffer (1% BSA, 0.5 μM EDTA pH 7.4 in PBS). The single cell suspension was then incubated with anti-CD45-PerCp-Cy5.5, anti-CD31-PE, anti-PDGFRα-APC and anti-EpCAM-BV421 antibodies (1:200) (Biolegend) for 20 min on ice. After incubation, cells were washed with ice-cold FACS buffer and resuspended in 1 ml of FACS buffer. FACS sorting was conducted using a BD FACS Aria II (BD Biosciences). […]

[1] = system: bile duct ligation mediated hepatic fibrosis; test: Bile Duct Ligation model of liver fibrosis; type: in vivo, mouse; conditions: BDL mice, DHX 5 mg/kg i.p. daily from Day 7 for 14 days
Experimental: Bile Duct Ligation: BDL was performed as previously described. Briefly, 8-10 weak old female C57BL/6N underwent either BDL or sham surgery. Mice were anesthetized on Day 0 following IACUC protocol, and the bile duct was ligated using sterile 3/0 silk ligatures. Sham surgery was performed by passing a silk ligature under the bile duct. Starting on Day 7, DHX (5 mg/kg) or vehicle control was administered everyday intraperitoneally (i.p.) for 14 days. Following the final DHX treatment, mice were sacrificed and the livers harvested for analysis of fibrosis.
Histological Scoring: Five μm thick sections were cut from Paraffin embedded lung tissues, and the sections were stained either with hematoxylin and eosin (H&E) or with Masson's Trichrome stain kit (Abcam). […] The severity of interstitial and peribronchiolar lung immature and mature fibrosis was estimated on a numerical scale according to Ashcroft et al. For scoring purposes, all H&E stained slides were systematically scanned at 100× magnification and successive 100× fields were scored. […] The predominant score for each field was recorded. The mean of all scores was calculated for each case. Liver trichrome stained sections were computationally measured using Image J software. […]
Hydroxyproline: Hydroxyproline content was measured using a hydroxyproline assay kit (Biovision) according to the manufacture's instruction with slight modification. […]

YAP/TAZ = YAP/TAZ nuclear localization in IMR-90 and other mesenchymal cells (cardiac, dermal fibroblasts, hepatic stellate cells); type: cell-based, human; conditions: FIG. 37B

Compound: Oc1cc2c(cc1O)[C@H]1c3ccccc3CN[C@@H]1CC2 (racemic) [Dihydrexidine, dihydrexidine]
- expression of YAP/TAZ target genes in freshly isolated lung fibroblasts, epithelial and endothelial cells (YAP/TAZ target genes): selectively blocks expression of YAP/TAZ target genes in lung fibroblasts in vivo
- collagen deposition (hydroxyproline) [1]: trend toward reduced collagen deposition
- histological fibrosis (trichrome) [1]: significantly improved histological fibrosis
- YAP/TAZ nuclear localization in mesenchymal cells derived from uterine fibroids (YAP/TAZ): marginal inhibition of YAP/TAZ nuclear localization
